Here are results for five compounds from paper PMC3731424 (Biochemistry, 2013).

Like-named read-outs stand apart in the source and are kept apart here. A value given as a limit tells only on which side of the number the result lay.

The target of one data set is B. subtilis PBP4a (Bacillus subtilis, UniProt P39844). The data set can be described thus: Inhibition of B. subtilis PBP4a, competition with substrate 14. In kind it is biochemical.
The nature of data set [1]: Hydration equilibrium of the carbonyl compounds in aqueous solution. In kind it is physicochemical. As to conditions: from 1H NMR spectra.
The target in data set [2] is T1, Actinomadura R39 DD-peptidase (Actinomadura sp., UniProt P39045). In kind it is biochemical.
Data set [3] deals with T1, Actinomadura R39 DD-peptidase. In kind it is biochemical. The source holds these as a separate data set.
For data set [4] the following is noted: literature estimate; cited from earlier work.
The conditions of data set [5]: cited from earlier work.

T1 sequence (P39045 50-538): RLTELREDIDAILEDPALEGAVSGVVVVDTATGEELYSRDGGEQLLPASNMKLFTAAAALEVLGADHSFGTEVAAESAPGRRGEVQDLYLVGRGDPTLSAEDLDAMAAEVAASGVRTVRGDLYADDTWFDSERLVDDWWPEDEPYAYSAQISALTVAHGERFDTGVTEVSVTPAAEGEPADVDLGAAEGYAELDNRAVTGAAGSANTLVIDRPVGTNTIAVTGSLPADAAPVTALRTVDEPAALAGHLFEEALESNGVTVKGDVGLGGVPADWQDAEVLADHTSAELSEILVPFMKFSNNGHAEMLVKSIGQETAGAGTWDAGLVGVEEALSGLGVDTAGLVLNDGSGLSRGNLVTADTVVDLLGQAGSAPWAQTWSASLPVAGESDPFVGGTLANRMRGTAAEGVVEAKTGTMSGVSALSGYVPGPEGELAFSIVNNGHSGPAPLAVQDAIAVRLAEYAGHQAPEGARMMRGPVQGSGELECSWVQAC

For the compound `C[C@H](C=O)NC(=O)CCCC[C@@H](N)C(=O)O` [Compound 11], the “Time dependence of inhibition, PBP4a” value at B. subtilis PBP4a is reported as “No time dependence”. Besides, the “KH (hydration equilibrium constant [IOH2]/[I])” value in data set [1] stood at 30. Besides, the “Time dependence of inhibition, R39 DD-peptidase” value in data set [2] is on record as “No time dependence”.
Compound `CC(NC(=O)CCCC[C@@H](N)C(=O)O)C(=O)C(F)(F)F` (stereo partly drawn) [Compound 12, D-α-Aminopimelyl-(1,1,1-trifluoro-3-amino)butan-2-one] returned a Ki in data set [3] of 0.17 µM. Besides, on B. subtilis PBP4a, affinity was put at a Ki of 13.5 µM and the “Time dependence of inhibition, PBP4a” value is reported as “No time dependence”. Further, in data set [2], the Ki was 0.37 µM and the “Time dependence of inhibition, R39 DD-peptidase” value was “No time dependence”.
As to `C[C@@H](SC(=O)CNC(=O)Cc1ccccc1)C(=O)O` [Compound 14, (Phenylacetyl)glycyl-D-thiolactate, reference compound], the Km at B. subtilis PBP4a (read-out: Km of the substrate, PBP4a, 20 mM MOPS pH 7.50, 25 °C) stood at 440 ± 80 µM.
With `CC(=O)C(F)(F)F` [trifluoroacetone], the “KH, lower limit estimate” value in data set [4] is given as at least 35.
In the case of `OCC(F)(F)F` [trifluoroethanol], in data set [5], the pKa was 12.4.
